The text below walks through data of ChEMBL document CHEMBL1152031, “Substituted N,N-diphenyl ureas as potent inhibitors of acyl-CoA:Cholesterol acyltransferase (ACAT)” (Bioorg Med Chem Lett, 1993).

The target of one test is O-acyltransferase (Oryctolagus cuniculus, UniProt G1SFD9). Description: In vitro inhibition of intestinal Acyl coenzyme A:cholesterol acyltransferase in cholesterol-fed rabbits.
Another test has as its system Rattus norvegicus. Briefly: Tested in vivo for the ability to lower the total plasma cholesterol (TC) in an chronic peanut oil/cholesterol/cholic Acid (APCC) model at the dose of 30 mg/kg. The test is classed as functional.

Sequence of O-acyltransferase (G1SFD9 1-524): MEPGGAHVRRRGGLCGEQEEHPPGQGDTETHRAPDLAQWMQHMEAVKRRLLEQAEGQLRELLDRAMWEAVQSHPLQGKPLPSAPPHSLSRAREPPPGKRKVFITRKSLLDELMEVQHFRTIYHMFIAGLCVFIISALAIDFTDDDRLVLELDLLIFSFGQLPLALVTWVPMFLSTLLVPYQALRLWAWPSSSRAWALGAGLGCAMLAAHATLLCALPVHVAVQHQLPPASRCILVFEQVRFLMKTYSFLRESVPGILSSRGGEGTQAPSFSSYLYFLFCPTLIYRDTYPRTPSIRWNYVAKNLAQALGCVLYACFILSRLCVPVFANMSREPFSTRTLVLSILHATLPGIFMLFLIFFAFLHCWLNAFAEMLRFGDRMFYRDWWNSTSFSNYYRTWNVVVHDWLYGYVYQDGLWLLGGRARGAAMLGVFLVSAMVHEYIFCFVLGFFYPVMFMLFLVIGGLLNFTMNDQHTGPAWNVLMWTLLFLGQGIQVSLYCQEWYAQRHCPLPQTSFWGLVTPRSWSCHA

At O-acyltransferase, `CCCCCCCCCCCCc1ccc(NC(=O)Nc2c(C(C)C)cccc2C(C)C)cc1` came in with an IC50 of 15 nM. The “Delta TC” value with Rattus norvegicus is on record as -47%. For `CCCCCCCCCCCCCc1ccc(NC(=O)Nc2c(C(C)C)cccc2C(C)C)cc1`, in that order: 11 nM and -70%. In turn, `CCCCc1ccc(NC(=O)Nc2c(C(C)C)cccc2C(C)C)cc1` registered an IC50 on O-acyltransferase of 29 nM. The “Delta TC” value in the test on Rattus norvegicus is -12%. In turn, `CCCCCc1ccc(NC(=O)Nc2c(C(C)C)cccc2C(C)C)cc1` gave an IC50 on O-acyltransferase of 32 nM. Same read-out and setting: for `CC(C)c1ccc(NC(=O)Nc2c(C(C)C)cccc2C(C)C)cc1` the value was 66 nM. Take `CCCCCCCCCc1ccc(NC(=O)Nc2c(C(C)C)cccc2C(C)C)cc1`: at O-acyltransferase, the midpoint of inhibition, the IC50, lay at 9 nM. Besides, the “Delta TC” value in the test on Rattus norvegicus is recorded as -8%.

`CC(C)c1cccc(C(C)C)c1NC(=O)Nc1ccc(C(C)(C)C)cc1`: the IC50 against O-acyltransferase was 168 nM. Also, the “Delta TC” value with Rattus norvegicus is on record as -10%.

Consider `CCc1ccc(NC(=O)Nc2c(C(C)C)cccc2C(C)C)cc1`, for which the IC50 against O-acyltransferase was found to be 100 nM.

As for `CCCCCCCCc1ccc(NC(=O)Nc2c(C(C)C)cccc2C(C)C)cc1`, at O-acyltransferase, the IC50 stood at 11 nM. Moreover, in the test on Rattus norvegicus, the “Delta TC” value is on record as -29%. Consider `CCCCCCCN(Cc1ccc(CC(C)(C)C)cc1)C(=O)Nc1ccc(F)cc1F` [CL-277082], for which the “Delta TC” value in the test with Rattus norvegicus was -54%. `Cc1ccc(NC(=O)Nc2c(C(C)C)cccc2C(C)C)cc1`: it took 250 nM to reach half-maximal inhibition on O-acyltransferase (IC50). This lies in the sub-micromolar range. At O-acyltransferase, `CCCCCCc1ccc(NC(=O)Nc2c(C(C)C)cccc2C(C)C)cc1` came in with an IC50 of 26 nM. For the same molecule, the “Delta TC” value with Rattus norvegicus was -18%. As to `CCCCCCCCCCc1ccc(NC(=O)Nc2c(C(C)C)cccc2C(C)C)cc1`, the IC50 on O-acyltransferase is 13 nM. Besides, the “Delta TC” value with Rattus norvegicus is -25%. For `CCCCCCCCCCCc1ccc(NC(=O)Nc2c(C(C)C)cccc2C(C)C)cc1`, in that order: 9 nM and -29%. For `CCCCCCCCCCCCCCc1ccc(NC(=O)Nc2c(C(C)C)cccc2C(C)C)cc1`, in that order: 500 nM and -25%. As to `CCCc1ccc(NC(=O)Nc2c(C(C)C)cccc2C(C)C)cc1`, half-maximal inhibition against O-acyltransferase (IC50) was put at 38 nM. `CCCCCCCc1ccc(NC(=O)Nc2c(C(C)C)cccc2C(C)C)cc1`: on O-acyltransferase, the IC50 is 19 nM. The “Delta TC” value with Rattus norvegicus is -21%.
